Measurements taken from US11021457B2, “Class of isoindolone-imide ring-1,3-dione-2-ene compounds, composition and use thereof” (WIGEN BIOMEDICINE TECHNOLOGY (SHANGHAI) CO., LTD., priority 2017, dated 2021).
Read-outs that look alike come from different tables or passages of the source.

Legend:
K562 = experiment: Inhibition of tumor cell proliferation, CellTiter-Glo, K562; type: cell-based; conditions: compound concentration 50 μM, 72 hours; for cell survival rate (%) at 50 µM: Homo sapiens, K562, read-out: Inhibitory activity against proliferation (cell survival rate) K562
How it was run: (§1)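 Compound tested at 50 μM for 72 h, read by CellTiter-Glo. Survival rate = (treated−blank)/(control−blank) RLU ×100, binned as +++ ≤30%, ++ >30-≤60%, + 60-<90%. Seeding 2000-10000 cells/well depending on growth rate.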

SU-DHL6 = experiment: Inhibition of tumor cell proliferation, CellTiter-Glo, SU-DHL6; type: cell-based; conditions: compound concentration 50 μM, 72 hours; for cell survival rate (% of control) at 50 µM: Homo sapiens, SU-DHL-6, read-out: Inhibitory activity against proliferation (cell survival rate) SU-DHL6
How it was run: as §1

MDA-MB-453 = experiment: Inhibition of tumor cell proliferation, CellTiter-Glo, MDA-MB-453; type: cell-based; conditions: compound concentration 50 μM, 72 hours; for cell survival rate (%) at 50 µM: Homo sapiens, MDA-MB-453, read-out: Inhibitory activity against proliferation (cell survival rate) MDA-MB-453
How it was run: as §1

BxPC-3 = experiment: Inhibition of tumor cell proliferation, CellTiter-Glo, BxPC-3; type: cell-based; conditions: compound concentration 50 μM, 72 hours; for cell survival rate (%) at 50 µM: Homo sapiens, BXPC-3, read-out: Inhibitory activity against proliferation (cell survival rate) BxPC-3
How it was run: as §1

LC3B = LC3B (Homo sapiens (Human), UniProt Q9GZQ8); experiment: Fluorescence polarization experiment targeting LC3B (GST-LC3B with FITC-labeled peptide)
RPMI-8226 = experiment: Inhibition of tumor cell proliferation, CellTiter-Glo, RPMI-8226; type: cell-based; conditions: compound concentration 50 μM, 72 hours; for cell survival rate (% of control) at 50 µM: Homo sapiens, RPMI-8226, read-out: Inhibitory activity against proliferation (cell survival rate) RPMI-8226
How it was run: as §1

A549 = experiment: Inhibition of tumor cell proliferation, CellTiter-Glo, A549; type: cell-based; conditions: compound concentration 50 μM, 72 hours
How it was run: as §1

[1] = GST-LC3B 180 nM, FITC-labeled peptide 18 nM, 25° C.

## CC(C)[C@H](NC(=O)CN1CCN(CCNC=C2C(=O)CC(c3ccccc3)CC2=O)CC1)C(=O)N[C@@H](CCCNC(N)=O)C(=O)Nc1cccc2c1CN(C1CCC(=O)NC1=O)C2=O (stereo partly drawn) [Compound 60]
K562
  Inhibitory activity against proliferation (cell survival rate) K562: + (60≤survival rate (%)<90)
SU-DHL6
  Inhibitory activity against proliferation (cell survival rate) SU-DHL6: ++ (30<survival rate (%)≤60)
MDA-MB-453
  Inhibitory activity against proliferation (cell survival rate) MDA-MB-453: + (60≤survival rate (%)<90)
BxPC-3
  Inhibitory activity against proliferation (cell survival rate) BxPC-3: ++ (30<survival rate (%)≤60)
LC3B; [1]
  IC50: 15 to 100 µM
RPMI-8226
  Inhibitory activity against proliferation (cell survival rate) RPMI-8226: +++ (survival rate (%)≤30)

## CN1C(=O)/C(=C\Nc2cccc3c2CN(C2CCC(=O)NC2=O)C3=O)C(=O)c2ccc(C(F)(F)F)cc21 (stereo not drawn) [Compound 136]
K562
  cell survival rate (%) at 50 µM: 30 to 60%
SU-DHL6
  cell survival rate (% of control) at 50 µM: 60 to 90%
MDA-MB-453
  cell survival rate (%) at 50 µM: ≤ 30%
BxPC-3
  cell survival rate (%) at 50 µM: 60 to 90%
LC3B
  IC50: 3 to 15 µM
RPMI-8226
  cell survival rate (% of control) at 50 µM: ≤ 30%

## CC(Nc1cccc2c1C(=O)N(C1CCC(=O)NC1=O)C2=O)=C1C(=O)CC(c2ccccc2)CC1=O (stereo not drawn) [Compound 76]
K562
  Inhibitory activity against proliferation (cell survival rate) K562: +++ (survival rate (%)≤30)
SU-DHL6
  Inhibitory activity against proliferation (cell survival rate) SU-DHL6: +++ (survival rate (%)≤30)
A549
  Inhibitory activity against proliferation (cell survival rate) A549: +++ (survival rate (%)≤30)
BxPC-3
  Inhibitory activity against proliferation (cell survival rate) BxPC-3: ++ (30<survival rate (%)≤60)
LC3B; [1]
  IC50: 100 to 1000 µM
RPMI-8226
  Inhibitory activity against proliferation (cell survival rate) RPMI-8226: +++ (survival rate (%)≤30)

## O=C1CCC(N2Cc3cc(NC=C4C(=O)CC(c5ccccc5)CC4=O)ccc3C2=O)C(=O)N1 (stereo not drawn) [Compound 8]
K562
  Inhibitory activity against proliferation (cell survival rate) K562: ++ (30<survival rate (%)≤60)
SU-DHL6
  Inhibitory activity against proliferation (cell survival rate) SU-DHL6: + (60≤survival rate (%)<90)
A549
  Inhibitory activity against proliferation (cell survival rate) A549: ++ (30<survival rate (%)≤60)
MDA-MB-453
  Inhibitory activity against proliferation (cell survival rate) MDA-MB-453: + (60≤survival rate (%)<90)
BxPC-3
  Inhibitory activity against proliferation (cell survival rate) BxPC-3: ++ (30<survival rate (%)≤60)
RPMI-8226
  Inhibitory activity against proliferation (cell survival rate) RPMI-8226: ++ (30<survival rate (%)≤60)

## O=C1CCC(N2Cc3c(NC(=O)NCCNC=C4C(=O)CC(c5ccccc5)CC4=O)cccc3C2=O)C(=O)N1 (stereo not drawn) [Compound 77]
K562
  Inhibitory activity against proliferation (cell survival rate) K562: +++ (survival rate (%)≤30)
SU-DHL6
  Inhibitory activity against proliferation (cell survival rate) SU-DHL6: + (60≤survival rate (%)<90)
A549
  Inhibitory activity against proliferation (cell survival rate) A549: +++ (survival rate (%)≤30)
MDA-MB-453
  Inhibitory activity against proliferation (cell survival rate) MDA-MB-453: +++ (survival rate (%)≤30)
BxPC-3
  Inhibitory activity against proliferation (cell survival rate) BxPC-3: + (60≤survival rate (%)<90)
RPMI-8226
  Inhibitory activity against proliferation (cell survival rate) RPMI-8226: + (60≤survival rate (%)<90)

## O=C1CCC(N2Cc3c(NC(=O)c4ccc(CN5CCN(CCNC=C6C(=O)CC(c7ccccc7)CC6=O)CC5)cc4)cccc3C2=O)C(=O)N1 (stereo not drawn) [Compound 92]
K562
  Inhibitory activity against proliferation (cell survival rate) K562: + (60≤survival rate (%)<90)
SU-DHL6
  Inhibitory activity against proliferation (cell survival rate) SU-DHL6: +++ (survival rate (%)≤30)
A549
  Inhibitory activity against proliferation (cell survival rate) A549: + (60≤survival rate (%)<90)
MDA-MB-453
  Inhibitory activity against proliferation (cell survival rate) MDA-MB-453: ++ (30<survival rate (%)≤60)
BxPC-3
  Inhibitory activity against proliferation (cell survival rate) BxPC-3: + (60≤survival rate (%)<90)
RPMI-8226
  Inhibitory activity against proliferation (cell survival rate) RPMI-8226: +++ (survival rate (%)≤30)

## O=C1CCC(N2Cc3c(NC(=O)C4CCN(CCNC=C5C(=O)CC(c6ccccc6)CC5=O)CC4)cccc3C2=O)C(=O)N1 (stereo not drawn) [Compound 61]
K562
  Inhibitory activity against proliferation (cell survival rate) K562: + (60≤survival rate (%)<90)
SU-DHL6
  Inhibitory activity against proliferation (cell survival rate) SU-DHL6: ++ (30<survival rate (%)≤60)
A549
  Inhibitory activity against proliferation (cell survival rate) A549: + (60≤survival rate (%)<90)
MDA-MB-453
  Inhibitory activity against proliferation (cell survival rate) MDA-MB-453: +++ (survival rate (%)≤30)
BxPC-3
  Inhibitory activity against proliferation (cell survival rate) BxPC-3: + (60≤survival rate (%)<90)
RPMI-8226
  Inhibitory activity against proliferation (cell survival rate) RPMI-8226: + (60≤survival rate (%)<90)

## O=C1CCC(N2Cc3c(N/C=C4\C(=O)Nc5cc(C(F)(F)F)ccc5C4=O)cccc3C2=O)C(=O)N1 (stereo not drawn) [Compound 137]
K562
  cell survival rate (%) at 50 µM: 30 to 60%
SU-DHL6
  cell survival rate (% of control) at 50 µM: ≤ 30%
A549; Homo sapiens, A549, read-out: Inhibitory activity against proliferation (cell survival rate) A549
  cell survival rate (% of control) at 50 µM: 60 to 90%
MDA-MB-453
  cell survival rate (%) at 50 µM: 60 to 90%
BxPC-3
  cell survival rate (%) at 50 µM: 30 to 60%
RPMI-8226
  cell survival rate (% of control) at 50 µM: ≤ 30%

## O=C1CCC(N2Cc3c(NC(=O)OCOC(=O)C=CC(=O)N4CCN(CCNC=C5C(=O)CC(c6ccccc6)CC5=O)CC4)cccc3C2=O)C(=O)N1 (stereo not drawn) [Compound 85]
K562
  Inhibitory activity against proliferation (cell survival rate) K562: ++ (30<survival rate (%)≤60)
SU-DHL6
  Inhibitory activity against proliferation (cell survival rate) SU-DHL6: + (60≤survival rate (%)<90)
A549
  Inhibitory activity against proliferation (cell survival rate) A549: ++ (30<survival rate (%)≤60)
MDA-MB-453
  Inhibitory activity against proliferation (cell survival rate) MDA-MB-453: + (60≤survival rate (%)<90)
BxPC-3
  Inhibitory activity against proliferation (cell survival rate) BxPC-3: + (60≤survival rate (%)<90)
RPMI-8226
  Inhibitory activity against proliferation (cell survival rate) RPMI-8226: +++ (survival rate (%)≤30)

## O=C1CCC(N2C(=O)c3cccc(OC(=O)OCCOCCN4CCN(CCNC=C5C(=O)CC(c6ccccc6)CC5=O)CC4)c3C2=O)C(=O)N1 (stereo not drawn) [Compound 104]
K562
  Inhibitory activity against proliferation (cell survival rate) K562: +++ (survival rate (%)≤30)
SU-DHL6
  Inhibitory activity against proliferation (cell survival rate) SU-DHL6: +++ (survival rate (%)≤30)
A549
  Inhibitory activity against proliferation (cell survival rate) A549: +++ (survival rate (%)≤30)
MDA-MB-453
  Inhibitory activity against proliferation (cell survival rate) MDA-MB-453: +++ (survival rate (%)≤30)
BxPC-3
  Inhibitory activity against proliferation (cell survival rate) BxPC-3: ++ (30<survival rate (%)≤60)
RPMI-8226
  Inhibitory activity against proliferation (cell survival rate) RPMI-8226: +++ (survival rate (%)≤30)

## O=C1CCC(N2Cc3c(NC(=O)c4ccccc4NC=C4C(=O)CC(c5ccccc5)CC4=O)cccc3C2=O)C(=O)N1 (stereo not drawn) [Compound 52]
K562
  Inhibitory activity against proliferation (cell survival rate) K562: +++ (survival rate (%)≤30)
SU-DHL6
  Inhibitory activity against proliferation (cell survival rate) SU-DHL6: + (60≤survival rate (%)<90)
A549
  Inhibitory activity against proliferation (cell survival rate) A549: ++ (30<survival rate (%)≤60)
MDA-MB-453
  Inhibitory activity against proliferation (cell survival rate) MDA-MB-453: ++ (30<survival rate (%)≤60)
BxPC-3
  Inhibitory activity against proliferation (cell survival rate) BxPC-3: + (60≤survival rate (%)<90)
RPMI-8226
  Inhibitory activity against proliferation (cell survival rate) RPMI-8226: +++ (survival rate (%)≤30)

## O=C1CCC(N2C(=O)c3cccc(NC(=O)[C@@H]4C[C@H](O)CN4CCNC=C4C(=O)CC(c5ccccc5)CC4=O)c3C2=O)C(=O)N1 (stereo partly drawn) [Compound 64]
K562
  Inhibitory activity against proliferation (cell survival rate) K562: +++ (survival rate (%)≤30)
SU-DHL6
  Inhibitory activity against proliferation (cell survival rate) SU-DHL6: +++ (survival rate (%)≤30)
MDA-MB-453
  Inhibitory activity against proliferation (cell survival rate) MDA-MB-453: +++ (survival rate (%)≤30)
BxPC-3
  Inhibitory activity against proliferation (cell survival rate) BxPC-3: + (60≤survival rate (%)<90)
LC3B; [1]
  IC50: 15 to 100 µM
RPMI-8226
  Inhibitory activity against proliferation (cell survival rate) RPMI-8226: ++ (30<survival rate (%)≤60)

## O=C1CCC(N2C(=O)c3cccc(OCCN4CCN(CCNC=C5C(=O)CC(c6ccccc6)CC5=O)CC4)c3C2=O)C(=O)N1 (stereo not drawn) [Compound 106]
K562
  Inhibitory activity against proliferation (cell survival rate) K562: + (60≤survival rate (%)<90)
SU-DHL6
  Inhibitory activity against proliferation (cell survival rate) SU-DHL6: + (60≤survival rate (%)<90)
A549
  Inhibitory activity against proliferation (cell survival rate) A549: +++ (survival rate (%)≤30)
MDA-MB-453
  Inhibitory activity against proliferation (cell survival rate) MDA-MB-453: ++ (30<survival rate (%)≤60)
BxPC-3
  Inhibitory activity against proliferation (cell survival rate) BxPC-3: ++ (30<survival rate (%)≤60)
RPMI-8226
  Inhibitory activity against proliferation (cell survival rate) RPMI-8226: + (60≤survival rate (%)<90)
